The supplement of paper PMC11208160

Assay: recombinant barcode read abundance after kanamycin selection (control-corrected) (log10(CPM+1)); higher = more efficient recombination; sequences stand for … in AGTGCAGAGAAAATCGGCCAGTTTTCTCTGCCTGCAGTCCGCATGCCGT…AGATTTATGCAGCGGACTGCCTTTCTCCCAAAGTGATAAACCGGACAGTATCATGGACCGGTTTTCCCGGTAATCCGTATTTGCAAGGTTGGTTTCACT; site = the 11-nt target
In short: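 Reported as log10(CPM+1), each value stands for recombination efficiency. That efficiency is the averaged, control-corrected counts per million of barcodes found at recombinant junctions. Cells from a pooled E. coli library pairing targets with IS621 bridge RNA target-binding loops were plated twice on chloramphenicol/ampicillin LB agar (control) and twice on chloramphenicol/ampicillin/kanamycin with 0.1 mM IPTG.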
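Note: IS621 recombinase and bridge RNA in Escherichia coli cells.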

Sequence: TAGCCGTCTTGGGTTCTAACCTGTTGCAC (site TAGCCGTCTGT)
- recombinant barcode read abundance (log10): 1.4

Sequence: TAGCCTTCTTGGGTTCTAACCTGTTGCTG (site TAGCCTTCTCA)
- recombinant barcode read abundance (log10): 1.02

Sequence: TAGCCTTCTTGGGTTCTAACCTGTTGCTG (site TAGCCTTCTTA)
- recombinant barcode read abundance (log10): 0.252

Sequence: TAGCTAGCTTGGGTTCTAACCTGTTGCGT (site GCTTACCCTTA)
- recombinant barcode read abundance (log10): 0.0618

Sequence: TAGCTAGCTTGGGTTCTAACCTGTTGCGT (site TAGCTAGCTAC)
- recombinant barcode read abundance (log10): 1.62

Sequence: TAGCTCACTTGGGTTCTAACCTGTTGCAT (site TAGATCACTAT)
- recombinant barcode read abundance (log10): 0.0546

Sequence: TAGCTCACTTGGGTTCTAACCTGTTGCAT (site TAGCTCACTAT)
- recombinant barcode read abundance (log10): 1.17

Sequence: TAGCTCACTTGGGTTCTAACCTGTTGCAT (site TAGGTCACTAT)
- recombinant barcode read abundance (log10): 0.181

Sequence: TAGCTCACTTGGGTTCTAACCTGTTGCAT (site TAGTTCACTAT)
- recombinant barcode read abundance (log10): 0.307

Sequence: TAGGAACCTTGGGTTCTAACCTGTTGCCT (site AAGGAACCTAG)
- recombinant barcode read abundance (log10): 0.7

Sequence: TAGGAACCTTGGGTTCTAACCTGTTGCCT (site CAGGAACCTAG)
- recombinant barcode read abundance (log10): 0.649

Sequence: TAGGAACCTTGGGTTCTAACCTGTTGCCT (site GAGGAACCTAG)
- recombinant barcode read abundance (log10): 0.0651

Sequence: TAGGAACCTTGGGTTCTAACCTGTTGCCT (site TAGGAACCTAG)
- recombinant barcode read abundance (log10): 2.63

Sequence: TAGGACACTTGGGTTCTAACCTGTTGCCA (site TAGGACACTTG)
- recombinant barcode read abundance (log10): 1.86

Sequence: TAGGACACTTGGGTTCTAACCTGTTGCCA (site TCGGATACTTG)
- recombinant barcode read abundance (log10): 0.198

Sequence: TAGGACACTTGGGTTCTAACCTGTTGCGT (site TAGGAAACTAC)
- recombinant barcode read abundance (log10): 0.378

Sequence: TAGGACACTTGGGTTCTAACCTGTTGCGT (site TAGGACACTAC)
- recombinant barcode read abundance (log10): 2.8

Sequence: TAGGACACTTGGGTTCTAACCTGTTGCGT (site TAGGAGACTAC)
- recombinant barcode read abundance (log10): 0.1

Sequence: TAGGACACTTGGGTTCTAACCTGTTGCGT (site TAGGATACTAC)
- recombinant barcode read abundance (log10): 0.295

Sequence: TAGGACGCTTGGGTTCTAACCTGTTGCCT (site TAAGACGCTAG)
- recombinant barcode read abundance (log10): 1.76

Sequence: TAGGACGCTTGGGTTCTAACCTGTTGCCT (site TACGACGCTAG)
- recombinant barcode read abundance (log10): 0.114

Sequence: TAGGACGCTTGGGTTCTAACCTGTTGCCT (site TAGGACGCTAG)
- recombinant barcode read abundance (log10): 2.53

Sequence: TAGGACGCTTGGGTTCTAACCTGTTGCCT (site TATGACGCTAG)
- recombinant barcode read abundance (log10): 0.286

Sequence: TAGGATGCTTGGGTTCTAACCTGTTGCGT (site TAGGATGCTAC)
- recombinant barcode read abundance (log10): 2.66

Sequence: TAGGATGCTTGGGTTCTAACCTGTTGCGT (site TAGGATTCTAC)
- recombinant barcode read abundance (log10): 0.248

Sequence: TAGGCCACTTGGGTTCTAACCTGTTGCAT (site TAGGCCACTAA)
- recombinant barcode read abundance (log10): 0.071

Sequence: TAGGCCACTTGGGTTCTAACCTGTTGCAT (site TAGGCCACTAC)
- recombinant barcode read abundance (log10): 0.0809

Sequence: TAGGCCACTTGGGTTCTAACCTGTTGCAT (site TAGGCCACTAG)
- recombinant barcode read abundance (log10): 0.294

Sequence: TAGGCCACTTGGGTTCTAACCTGTTGCAT (site TAGGCCACTAT)
- recombinant barcode read abundance (log10): 1.39

Sequence: TAGGCCACTTGGGTTCTAACCTGTTGCGT (site TAGGCCACTAA)
- recombinant barcode read abundance (log10): 0.522

Sequence: TAGGCCACTTGGGTTCTAACCTGTTGCGT (site TAGGCCACTAC)
- recombinant barcode read abundance (log10): 2.85

Sequence: TAGGCCACTTGGGTTCTAACCTGTTGCGT (site TAGGCCACTAG)
- recombinant barcode read abundance (log10): 0.0599

Sequence: TAGGCCACTTGGGTTCTAACCTGTTGCGT (site TAGGCCACTAT)
- recombinant barcode read abundance (log10): 1.7

Sequence: TAGGCGCCTTGGGTTCTAACCTGTTGCTT (site TAGGCGCCTAA)
- recombinant barcode read abundance (log10): 1.03

Sequence: TAGGCGCCTTGGGTTCTAACCTGTTGCTT (site TAGGCGCCTAC)
- recombinant barcode read abundance (log10): 0.263

Sequence: TAGGCGCCTTGGGTTCTAACCTGTTGCTT (site TAGGCGCCTAG)
- recombinant barcode read abundance (log10): 0.193

Sequence: TAGGCGCCTTGGGTTCTAACCTGTTGCTT (site TAGGCGCCTAT)
- recombinant barcode read abundance (log10): 0.0771

Sequence: TAGGCTCCTTGGGTTCTAACCTGTTGCAT (site TAGGCTCCTAT)
- recombinant barcode read abundance (log10): 1.19

Sequence: TAGGCTCCTTGGGTTCTAACCTGTTGCAT (site TAGGCTCCTCT)
- recombinant barcode read abundance (log10): 0.0701

Sequence: TAGGCTCCTTGGGTTCTAACCTGTTGCAT (site TAGGCTCCTGT)
- recombinant barcode read abundance (log10): 0.0892

Sequence: TAGGCTCCTTGGGTTCTAACCTGTTGCAT (site TAGGCTCCTTT)
- recombinant barcode read abundance (log10): 0.0761

Sequence: TAGGGCACTTGGGTTCTAACCTGTTGCTG (site TAGGGCACTCA)
- recombinant barcode read abundance (log10): 2.1

Sequence: TAGGGCACTTGGGTTCTAACCTGTTGCTG (site TAGGGCACTCG)
- recombinant barcode read abundance (log10): 0.888

Sequence: TAGGGCGCTTGGGTTCTAACCTGTTGCCT (site TAAGGAGCTAG)
- recombinant barcode read abundance (log10): 0.204

Sequence: TAGGGCGCTTGGGTTCTAACCTGTTGCCT (site TAGGGCGCTAG)
- recombinant barcode read abundance (log10): 1.01

Sequence: TAGGTGCCTTGGGTTCTAACCTGTTGCAT (site TAGGTACCTAT)
- recombinant barcode read abundance (log10): 1.21

Sequence: TAGGTGCCTTGGGTTCTAACCTGTTGCAT (site TAGGTCCCTAT)
- recombinant barcode read abundance (log10): 0.0424

Sequence: TAGGTGCCTTGGGTTCTAACCTGTTGCAT (site TAGGTGCCTAT)
- recombinant barcode read abundance (log10): 1.79

Sequence: TAGGTGCCTTGGGTTCTAACCTGTTGCAT (site TAGGTTCCTAT)
- recombinant barcode read abundance (log10): 0.167

Sequence: TAGGTGCCTTGGGTTCTAACCTGTTGCGG (site TAGGTGACTCC)
- recombinant barcode read abundance (log10): 0.134

Sequence: TAGGTGCCTTGGGTTCTAACCTGTTGCGG (site TAGGTGCCTCC)
- recombinant barcode read abundance (log10): 2.99

Sequence: TAGTAAGCTTGGGTTCTAACCTGTTGCTG (site TAGTAAGCTCA)
- recombinant barcode read abundance (log10): 0.921

Sequence: TAGTAAGCTTGGGTTCTAACCTGTTGCTG (site TAGTACGCTCT)
- recombinant barcode read abundance (log10): 0.142

Sequence: TAGTACACTTGGGTTCTAACCTGTTGCAC (site ACCATGTCTCC)
- recombinant barcode read abundance (log10): 0.0598

Sequence: TAGTACACTTGGGTTCTAACCTGTTGCAC (site TAGTACACTGT)
- recombinant barcode read abundance (log10): 1.55

Sequence: TAGTACTCTTGGGTTCTAACCTGTTGCTA (site TAGTACTCTAA)
- recombinant barcode read abundance (log10): 0.0398

Sequence: TAGTACTCTTGGGTTCTAACCTGTTGCTA (site TAGTACTCTCA)
- recombinant barcode read abundance (log10): 0.0859

Sequence: TAGTACTCTTGGGTTCTAACCTGTTGCTA (site TAGTACTCTGA)
- recombinant barcode read abundance (log10): 0.164

Sequence: TAGTACTCTTGGGTTCTAACCTGTTGCTA (site TAGTACTCTTA)
- recombinant barcode read abundance (log10): 1.58

Sequence: TAGTACTCTTGGGTTCTAACCTGTTGCTT (site TAGTACTCTAA)
- recombinant barcode read abundance (log10): 1.14

Sequence: TAGTACTCTTGGGTTCTAACCTGTTGCTT (site TAGTACTCTCA)
- recombinant barcode read abundance (log10): 0.0325

Sequence: TAGTACTCTTGGGTTCTAACCTGTTGCTT (site TAGTACTCTGA)
- recombinant barcode read abundance (log10): 0.199

Sequence: TAGTACTCTTGGGTTCTAACCTGTTGCTT (site TAGTACTCTTA)
- recombinant barcode read abundance (log10): 0.0259

Sequence: TAGTATCCTTGGGTTCTAACCTGTTGCGT (site TAGTATCCTAC)
- recombinant barcode read abundance (log10): 1.87

Sequence: TAGTATCCTTGGGTTCTAACCTGTTGCGT (site TAGTCTCCTAC)
- recombinant barcode read abundance (log10): 0.0759

Sequence: TAGTATCCTTGGGTTCTAACCTGTTGCGT (site TAGTGTCCTAC)
- recombinant barcode read abundance (log10): 0.0306

Sequence: TAGTATCCTTGGGTTCTAACCTGTTGCGT (site TAGTTTCCTAC)
- recombinant barcode read abundance (log10): 0.21

Sequence: TAGTCCACTTGGGTTCTAACCTGTTGCTA (site AAGTCCACTAA)
- recombinant barcode read abundance (log10): 0.239

Sequence: TAGTCCACTTGGGTTCTAACCTGTTGCTA (site TAGTCCACTTA)
- recombinant barcode read abundance (log10): 1.15

Sequence: TAGTCCGCTTGGGTTCTAACCTGTTGCCG (site TAGCCCTCTCG)
- recombinant barcode read abundance (log10): 0.214

Sequence: TAGTCCGCTTGGGTTCTAACCTGTTGCCG (site TAGTCCGCTCG)
- recombinant barcode read abundance (log10): 0.446

Sequence: TAGTCCTCTTGGGTTCTAACCTGTTGCTG (site TAGTCCTCTAA)
- recombinant barcode read abundance (log10): 0.048

Sequence: TAGTCCTCTTGGGTTCTAACCTGTTGCTG (site TAGTCCTCTCA)
- recombinant barcode read abundance (log10): 1.02

Sequence: TAGTCCTCTTGGGTTCTAACCTGTTGCTG (site TAGTCCTCTGA)
- recombinant barcode read abundance (log10): 0.14

Sequence: TAGTCCTCTTGGGTTCTAACCTGTTGCTG (site TAGTCCTCTTA)
- recombinant barcode read abundance (log10): 0.185

Sequence: TAGTCTTCTTGGGTTCTAACCTGTTGCGT (site AAGTATTCTAC)
- recombinant barcode read abundance (log10): 0.066

Sequence: TAGTCTTCTTGGGTTCTAACCTGTTGCGT (site TAGTCTTCTAC)
- recombinant barcode read abundance (log10): 0.681
